# In US8614333B2, “Acenaphtho heterocyclic compound and application thereof” (Dalian University of Technology, priority 2010, dated 2013):
# How the values were obtained:
# Bcl-2 protein = Bcl-2 protein (Homo sapiens, UniProt P10415); assay: ELISA assay, competitive binding to Bcl-2 protein (biotin-Bim/streptavidin plate); conditions: method calculates average IC50, read-out: Bcl-2 binding constants
# Description: (§1) The present inventors used fluorescence polarization assay to detect the bonding force between the protein and the compounds in a previous study (PCT/CN2010/075521). […] ELISA assay was used to detect the bonding force between the compounds and the protein in this application.
# (§2) Biotinylated Bim peptide was diluted to 0.09 μg/mL in SuperBlock blocking buffer in PBS and incubated for 1.5 h in 96-well microtiter plates already coated with streptavidin to allow the formation of the complex between Biotin-Bim and streptavidin. All incubations were performed at room temperature unless otherwise noted. Each inhibitor was first dissolved in pure DMSO to obtain a 10 mM stock solution. For each tested inhibitor, different concentrations of the inhibitor were incubated with 20 nM His-tagged Mcl-1 protein in PBS for 1 h with a final DMSO concentration of 4%. The plates were washed three times with PBS containing 0.05% Tween-20. The inhibitor and protein mixture (100 μL) were transferred to the plate containing the biotin-Bim/streptavidin complex and incubated for 2 h. The plate was then washed as before and mouse anti-His antibody that conjugated with horseradish peroxidase was added into the wells and incubated for 1 h. The plate was then washed with PBS containing 0.05% Tween-20. Finally, TMB was added to each well; the enzymatic reaction was stopped after 30 min by addition of H2SO4 (100 μL, 2M). Absorbances were measured with a TECAN GENios (Swiss, TECAN) microplate reader using a wavelength of 450 nm. Three independent experiments were performed with each inhibitor to calculate average IC50 value and standard deviation (SD).
# (§3) The BH3 analogous degrees of other 11 compounds were detected by using the experimental method as described above. The protein binding constant (binding constant in table 1) between them and Bcl-2 and Mcl-1 proteins were also on nM grade.
# His-tagged Mcl-1 protein = His-tagged Mcl-1 protein (Homo sapiens, UniProt Q07820); assay: ELISA assay, competitive binding to Mcl-1 protein (biotin-Bim/streptavidin plate); conditions: 20 nM His-tagged Mcl-1, method calculates average IC50, read-out: Mcl-1 binding constants
# Description: as §1, §2, §3
# [1] = biological target: T1, interaction between Bcl-2 and Bax (Homo sapiens, UniProt P10415); assay: Intracellular FRET, Bcl-2-CFP/Bax-YFP in Hela cells; type: cell-based; conditions: for Time (time period after which the interaction between Bcl-2 and Bax was interfered): at the concentration given
# T1 construct: expressed in transfected cells; host or cells: Hela cells
# Description: 2 μg of Bcl-2-CFP and Bax-YFP plasmids were transfected separately or simultaneously into Hela cells by using calcium phosphate coprecipitation method, 24 hours later, the cells were inoculated in a 6-well plate (2×10^5 cells/well), and the compound 1 to be detected dissolved in DMSO was added there into until the final concentration (2, 5, 10 and 15 μM) was achieved. 24 hours later (please refer to FIG. 5); the cells were washed with PBS for three times. The fluorescence value was detected by GENIOS fluorescence enzyme-labelled meter (TECAN, Swiss). In time-dependent experiment, the transfected cells were inoculated in a 6-well plate, after that, 40 μM of the compound was added thereinto. 3, 6 and 24 hours later (FIG. 6), the fluorescence intensities were detected by plate reader. As for the cell group in which only Bcl-2-CFP plasmid was transfected, the values at 475 nm emission wave length and 433 nm excitation wave length were recorded. As for the cell group in which only Bax-YFP plasmid was transfected, the values at 527 nm emission wave length and 505 nm excitation wave length were recorded. As for the cell group in which Bcl-2-CFP and Bax-YFP plasmids were co-transfected, the values at 527 nm and 475 emission wave lengths and 433 nm excitation wave length were recorded. The ratio of fluorescence intensity at 527 nm and 475 nm emission wave lengths was FRET. The FRET for the control group in which the plasmid was solely transfected was set as 1.0. […] In the cotransfected cells, the FRET increased up to 2.0 due to the interaction of Bcl-2 protein and Bax protein, and that the interference to the interaction between the two proteins increased and FRET decreased with the increase of the drug concentration and time. The cellular vitality was detected by MTT method. When the concentration of the compound reached 1 μM, the interaction between Bcl-2 and Bax can be interfered after 2 hours, and the results appeared concentration-time dependent trend.
# Wherein the concentration and time meant that the detected compound interfered with the interaction between Bcl-2 and Bax at the concentration for the time period.
# [2] = tested on: BAX shift towards the chondriosome; assay: Co-localization between Bax protein and chondriosome, Bax-YFP in MCF-7 cells; type: cell-based; conditions: for Doses (concentration at which the compound drove the BAX to shift towards the chondriosome): Bax-YFP/Mito Tracker Red; for Time (time period after which BAX shifted towards the chondriosome): at the concentration given
# Description: 5 μg of Bax-YFP plasmid was transfected into MCF-7 cells by using calcium phosphate coprecipitation method, 24 hours later, the cells were inoculated in a 6-well plate (0.2×10^6 cells/well), and 10 μM of the compound 1 to be detected was added thereinto. 6 hours later, the cells were washed with PBS and hatched away from light with 50 nM Mito Tracker Red CMXRos (chondriosome specific probes; red) for 10 minutes. Then the cells were washed with PBS for three times, and the fluorescent image was scanned with Radiance2000 laser confocal microscopy (Bio-Rad, USA). Meanwhile, dual channel scanning was carried out, one channel was used to scan the green fluorescence of Bax-YFP, and the other channel was used to scan the red fluorescence of the CMXRos probe for indicating the chondriosome. […] When the Bax protein was localized on the chondriosome, the green and red fluorescence was superimposed into orange, as shown in FIG. 7.
# Other 24 compounds were detected by the same experimental method as described above. […] Wherein the concentration and time meant that the detected compound simulated the BH3-only protein and driven the BAX to shift towards the chondriosome at the concentration for the time period.
# MCF-7 cells = assay: Cytotoxicity by MTT, cells without plasmid transfection; type: cell-based; conditions: Homo sapiens, MCF7; MCF-7, MTT, 48 hours; read-out: IC50 value in untransfected cells
# Description: (§4) 3 μg of BAX/BAK interfering plasmid was transfected into MCF-7 cells by using calcium phosphate coprecipitation method, 24 hours later, the cells were collected. The expressions after the BAX and BAK proteins interfered with RNA was detected by Western, and the cell groups without plasmid transfection were treated similarly and were set as the control group. The transfected cells were inoculated in a 96-well plate (1×10^5 cells/well), the control experiment of the cell group without plasmid transfection was carried out in parallel. The compound 1 to be detected was added thereinto according to the concentration gradient designed before the experiment. 48 hours later, the cellular vitality was detected by MTT. The experimental results were shown in FIG. 9, Gossypol as nonspecific BH3 analogue was treated in parallel.
# (§5) Other 24 compounds were also detected by the same experimental method as described above, the differences of IC50 values between the transfected cells and the without plasmid transfection cells were compared.
# [3] = tested on: MCF-7 cells transfected with BAX/BAK interfering plasmid; assay: Cytotoxicity by MTT, cells transfected with BAX/BAK interfering plasmid; type: cell-based; conditions: Homo sapiens, MCF7; MCF-7 with BAX/BAK interfering plasmid, MTT, 48 hours
# Description: as §4, §5
# Bcl-2 = assay: Western blotting, semiquantitative analysis of Bcl-2 protein bands; type: cell-based; conditions: control = 1, tumor cells
# Description: (§6) The interest protein was detected by the corresponding antibody. The expression of the interest protein in the cells was detected by horseradish peroxidase-labeled secondary antibodies in combination with ECL coloration method. […] The concentration of the protein bands in the Western images were carried out semiquantitative analysis and normalization treatment with KODAK Gel Logic 1500 imaging system software.
# Mcl-1 = assay: Western blotting, semiquantitative analysis of Mcl-1 protein bands; type: cell-based; conditions: control = 1, tumor cells
# Description: as §6
# GST-Bcl-2 protein = GST-Bcl-2 protein (Homo sapiens, UniProt P10415); assay: Fluorescence polarization assay, competition with FAM-Bid peptide for Bcl-2; conditions: GST-Bcl-2 40 nM, FAM-Bid 5 nM, 4 hours of incubation, read-out: Bcl-2 binding constants
# Description: (§7) A Bid BH3 peptide (amino acids: 79-99: […]) having 21 amino acids was synthesized and marked with 6-carboxyfluorescein N-succinimidyl ester (FAM) as fluorescent tag (FAM-Bid) at the N-terminal. The reaction system used in the competitive binding experiment was GST-Bcl-2 protein (40 nM) or Mcl-1 protein, which was dissolved in the reaction buffer (100 mM K3PO4, pH 7.5; 100 μg/ml bovine γ albumin; 0.02% sodium azide) together with FAM-Bid polypeptide (5 nM). In a 96-well plate, 100 µL of the reaction system was added into each well. Then 1 μL different concentration of compound 13 mother solution to be detected dissolved in DMSO was added there into until the final concentration met the experimental design requirements. Meanwhile, two control groups were established, one with the reaction system only containing Bcl-2 or Mcl-1 and FAM-Bid (equivalent to 0% inhibition rate), the other with the reaction system only containing FAM-Bid peptide. After 4 hours of incubation, the 96-well plate was detected by enzyme-labelled meter. The fluorescent polarization value (mP) was tested at […]. Ki value was deduced according to calculation formula.
# (§8) The BH3 analogous degrees of other 12 compounds were detected by using the experimental method as described above.
# Mcl-1 protein = Mcl-1 protein (Homo sapiens, UniProt Q07820); assay: Fluorescence polarization assay, competition with FAM-Bid peptide for Mcl-1; conditions: FAM-Bid 5 nM, 4 hours of incubation, read-out: Mcl-1 binding constants
# Description: as §7, §8
# Sequence of GST-Bcl-2 protein (P10415 whole entry): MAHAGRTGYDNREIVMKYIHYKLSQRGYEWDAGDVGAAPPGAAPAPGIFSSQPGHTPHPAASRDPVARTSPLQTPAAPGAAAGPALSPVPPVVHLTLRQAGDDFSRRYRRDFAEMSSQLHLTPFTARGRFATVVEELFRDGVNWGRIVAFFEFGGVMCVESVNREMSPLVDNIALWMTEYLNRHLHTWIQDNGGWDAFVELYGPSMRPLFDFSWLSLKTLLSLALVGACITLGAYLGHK
# T1 sequence (P10415 whole entry): as above
# Sequence of Mcl-1 protein (Q07820 whole entry, species assumed): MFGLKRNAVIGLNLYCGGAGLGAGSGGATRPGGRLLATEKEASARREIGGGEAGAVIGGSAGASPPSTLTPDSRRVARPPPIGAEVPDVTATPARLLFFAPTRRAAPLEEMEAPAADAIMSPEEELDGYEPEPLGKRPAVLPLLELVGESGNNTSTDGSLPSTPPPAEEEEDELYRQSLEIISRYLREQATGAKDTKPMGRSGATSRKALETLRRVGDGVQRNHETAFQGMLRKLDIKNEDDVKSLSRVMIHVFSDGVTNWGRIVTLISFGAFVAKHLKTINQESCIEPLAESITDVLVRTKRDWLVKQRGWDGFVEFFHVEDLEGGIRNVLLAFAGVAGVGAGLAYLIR
# Sequence of Bcl-2 protein (P10415 whole entry, species assumed): as the sequence (P10415 whole entry) above
# Sequence of His-tagged Mcl-1 protein (Q07820 whole entry): as the sequence (Q07820 whole entry, species assumed) above
Compound,Doses (concentration at which the compound interfered with the interaction between Bcl-2 and Bax) [1],Time (time period after which the interaction between Bcl-2 and Bax was interfered) [1],Ki (GST-Bcl-2 protein),Ki (Mcl-1 protein),IC50 (Bcl-2 protein),IC50 (His-tagged Mcl-1 protein),Doses (concentration at which the compound drove the BAX to shift towards the chondriosome) [2],Time (time period after which BAX shifted towards the chondriosome) [2],IC50 (MCF-7 cells),IC50 [3],"concentration of the protein bands (semiquantitative, normalized), Bcl-2 (Bcl-2; 6 h)","concentration of the protein bands (semiquantitative, normalized), Bcl-2 (Bcl-2; 12 h)","concentration of the protein bands (semiquantitative, normalized), Bcl-2 (Bcl-2; 18 h)","concentration of the protein bands (semiquantitative, normalized), Bcl-2 (Bcl-2; 24 h)","concentration of the protein bands (semiquantitative, normalized), Mcl-1 (Mcl-1; 2 h)","concentration of the protein bands (semiquantitative, normalized), Mcl-1 (Mcl-1; 6 h)",melting point
"CC(C)c1ccc(Oc2ccc3c4c(cccc24)C2=NC(=O)C(NCCCc4ccccc4)=C23)cc1 [Compound 12, 3-(4-Isopropyl-phenoxy)-9-(3-phenyl-propylamino)-acenaphtho[1,2-b]pyrrol-8-one]",0.2 µM,1 h,,,9 nM,15 nM,0.3 µM,2 h,2.9 µM,> 50 µM,0.99,0.99,0.45,0.16,0.66,0.28,275 to 276 °C
"CC(C)Cc1ccc(Oc2ccc3c4c(cccc24)C2=NC(=O)C(C#N)=C23)cc1 [Compound 15, 3-(4-Isobutyl-phenoxy)-8-oxo-8H-acenaphtho[1,2-b]pyrrole-9-carbonitrile]",0.5 µM,4 h,140 nM,12 nM,,,5.0 µM,3 h,7.1 µM,> 50 µM,0.99,0.99,0.39,0.12,0.69,0.42,
"CC(C)Cc1ccc(Oc2ccc3c4c(cccc24)C2=C(C#N)C(=O)N=C23)cc1 [Compound 16, 4-(4-Isobutyl-phenoxy)-8-oxo-8H-acenaphtho[1,2-b]pyrrole-9-carbonitrile]",0.5 µM,3 h,210 nM,56 nM,,,4.0 µM,3 h,8.5 µM,> 50 µM,,,,,,,
"CCCCCCOc1ccc2c3c(cccc13)C1=NC(=O)C(C(=O)O)=C12 [Compound 26, 3-Hexyloxy-8-oxo-8H-acenaphtho[1,2-b]pyrrole-9-carboxylic acid]",0.5 µM,5 h,105 nM,85 nM,,,5.0 µM,5 h,6.2 µM,> 50 µM,,,,,,,

# More lines, main results first:
Doses (concentration at which the compound interfered with the interaction between Bcl-2 and Bax) [1],Time (time period after which the interaction between Bcl-2 and Bax was interfered) [1],Ki (GST-Bcl-2 protein),Ki (Mcl-1 protein),Compound,IC50 (Bcl-2 protein),IC50 (His-tagged Mcl-1 protein),Doses (concentration at which the compound drove the BAX to shift towards the chondriosome) [2],Time (time period after which BAX shifted towards the chondriosome) [2],IC50 (MCF-7 cells),IC50 [3],"concentration of the protein bands (semiquantitative, normalized), Bcl-2 (Bcl-2; 6 h)","concentration of the protein bands (semiquantitative, normalized), Bcl-2 (Bcl-2; 12 h)","concentration of the protein bands (semiquantitative, normalized), Bcl-2 (Bcl-2; 18 h)","concentration of the protein bands (semiquantitative, normalized), Bcl-2 (Bcl-2; 24 h)","concentration of the protein bands (semiquantitative, normalized), Mcl-1 (Mcl-1; 2 h)","concentration of the protein bands (semiquantitative, normalized), Mcl-1 (Mcl-1; 6 h)",melting point
0.3 µM,3 h,23 nM,85 nM,"CC(C)Cc1ccc(Sc2ccc3c4c(cccc24)C2=C(C#N)C(=O)N=C23)cc1 [Compound 19, 4-(4-Isobutyl-phenylsulfanyl)-8-oxo-8H-acenaphtho[1,2-b]pyrrole-9-carbonitrile]",,,3.0 µM,3 h,2.2 µM,> 50 µM,,,,,,,
0.6 µM,4 h,115 nM,135 nM,"N#CC1=C2C(=NC1=O)c1ccc(C(=O)c3ccc(CN)cc3)c3cccc2c13 [Compound 25, 4-(4-Aminomethyl-benzoyl)-8-oxo-8H-acenaphtho[1,2-b]pyrrole-9-carbonitrile]",,,6.0 µM,4 h,6.5 µM,> 50 µM,,,,,,,
